Results: patent US11957684B2, “Treatment of heavy menstrual bleeding associated with uterine fibroids” (Sumitomo Pharma Switzerland GmbH, priority 2016, dated 2024)
Several values for one entry are separate records, joined by “and”; a condition that tells them apart may be missing. Equal entries are not always repeated. Where two headings read alike, the source gives them in different places.

Tested on: endometriosis-associated pain
Assay type: in vivo, human
Description: Subjects assessed and recorded their own quality of life (QOL) using the EHP-30 once a month during the study visit. As used in the examples, the VAS score was evaluated using a 100 mm scale. For pain intensity, the scale was anchored by “no pain” (score of 0) and “pain as bad as you can imagine” (score of 100). […] The above items were evaluated using a patient diary that was distributed by the sponsor. Subjects filled out the patient diary every day during the treatment period or until early termination. If taking prohibited analgesics, subjects recorded this fact in the patient diary along with the accompanying pain symptoms before use of analgesics. As used in the examples, pain during menstruation and pelvic pain unrelated to menstruation were evaluated using scores on the M-B&B and B&B. The M-B&B scores were recorded by subjects on the patient diary supplied by the sponsor. Subjects filled out the patient diary every day during the treatment period or until early termination. If taking prohibited analgesics, subjects recorded this fact in the patient diary along with the accompanying pain symptoms before use of analgesics. The investigator or subinvestigator assessed each patient's pain through interviews and filled out a B&B once a month. The items that were assessed are shown below. The M-B&B score included: dysmenorrhea (severe, moderate, mild, no pain, or no menstruation); pelvic pain (severe, moderate, mild, or no pain); deep dyspareunia (severe, moderate, mild, no pain, or no intercourse). The B&B score included: dysmenorrhea (severe, moderate, mild, none, or not applicable); dyspareunia (severe, moderate, mild, none, or not applicable); pelvic pain (severe, moderate, mild, or none); pelvic tenderness (severe, moderate, mild, or none); and induration (severe, moderate, mild, or none). As used in the examples, the EHP-30 score was obtained by subjects assessing and recording their own QOL using the EHP-30 questionnaire.

[1] = 40 mg, end of 84 consecutive days

In the case of `CONC(=O)Nc1ccc(-c2sc3c(c2CN(C)C)c(=O)n(-c2ccc(OC)nn2)c(=O)n3Cc2c(F)cccc2F)cc1` [Compound 1, N-(4-(1-(2,6-difluorobenzyl)-5-((dimethylamino)methyl)-3-(6-methoxy-3-pyridazinyl)-2,4-dioxo-1,2,3,4-tetrahydrothieno[2,3-d]pyrimidin-6-yl)phenyl)-N′-methoxyurea], the “change from baseline in maximum VAS, pelvic pain” value (20 mg, end of treatment) is reported as −33.3±30.14 mm, the “change from baseline in mean M-B&B score, deep dyspareunia” value (20 mg, end of treatment) is reported as −0.210±0.4936 and the “change from baseline in mean M-B&B score, dysmenorrhea” value (20 mg, end of treatment) is reported as −0.795±0.6490. The “change from baseline in mean VAS, dysmenorrhea” value (20 mg, end of treatment) was −19.825±20.4332 mm, the “change from baseline in mean VAS, dyspareunia” value (20 mg, end of treatment) was −3.553±11.5544 mm and the “change from baseline in mean VAS, pelvic pain” value (20 mg, end of treatment) was −9.032 mm and −9.032±11.8432 mm. The “change from baseline in proportion of days with usage of pain killer” value (20 mg, end of treatment) was −7.36±14.585%, the “change in proportion of days without pain (M-B&B), deep dyspareunia” value (20 mg, end of treatment) was 18.04±47.892% and the “change in proportion of days without pain (M-B&B), dysmenorrhea” value (20 mg, end of treatment) was 50.92±41.641%. For the same molecule, the “change in proportion of days without pain (M-B&B), pelvic pain” value (20 mg, end of treatment) was 17.75±30.339%, the “change in proportion of days without pain (VAS), dysmenorrhea” value (20 mg, end of treatment) was 50.91±42.602% and the “change in proportion of days without pain (VAS), dyspareunia” value (20 mg, end of treatment) was 15.14±47.793%. The “change in proportion of days without pain (VAS), pelvic pain” value (20 mg, end of treatment) was 21.50±28.859%, the “mean VAS score, dysmenorrhea” value (20 mg, end of treatment) was 7.878±14.2406 mm and the “mean VAS score, dyspareunia” value (20 mg, end of treatment) was 6.363±13.1847 mm. The “mean VAS score, pelvic pain” value (20 mg, end of treatment) was 6.557±11.2902 mm, the “subjects who achieved amenorrhea” value (20 mg, end of treatment) was 54.0% and the “subjects without pain in M-B&B score, dysmenorrhea” value (20 mg, end of treatment) was 61.0%. For the same molecule, the “subjects without pain in M-B&B score, dyspareunia” value (20 mg, end of treatment) was 52.5%, the “subjects without pain in M-B&B score, pelvic pain” value (20 mg, end of treatment) was 34.0% and the “subjects without pain in VAS score, dysmenorrhea” value (20 mg, end of treatment) was 59.0%. The “subjects without pain in VAS score, dyspareunia” value (20 mg, end of treatment) was 47.5%, the “subjects without pain in VAS score, pelvic pain” value (20 mg, end of treatment) was 20% and the “change from baseline in pelvic pain, dysmenorrhea, and dyspareunia in mean VAS” value (40 mg, 84 consecutive days) was −10.418±11.0171 mm. The “change from baseline in mean VAS, dysmenorrhea” value (40 mg, Day 1-28) was −10.979±14.8545 mm, the “change from baseline in mean VAS, dyspareunia” value (40 mg, Day 1-28) was 2.995±9.7916 mm and the “change from baseline in mean VAS, pelvic pain” value (40 mg, Day 1-28) was −3.761±7.8831 mm. For the same molecule, the “mean VAS score, dysmenorrhea” value (40 mg, Day 1-28) was 19.452±19.1065 mm, the “mean VAS score, dyspareunia” value (40 mg, Day 1-28) was 9.522±13.6408 mm and the “mean VAS score, pelvic pain” value (40 mg, Day 1-28) was 11.498±13.2341 mm. The “change from baseline in mean VAS, dysmenorrhea” value (40 mg, Day 57-84) was −30.094±17.2623 mm, the “change from baseline in mean VAS, dyspareunia” value (40 mg, Day 57-84) was −1.860±10.3161 mm and the “change from baseline in mean VAS, pelvic pain” value (40 mg, Day 57-84) was −10.537±11.0516 mm. The “mean VAS score, dysmenorrhea” value (40 mg, Day 57-84) was 0.569±2.5367 mm, the “mean VAS score, dyspareunia” value (40 mg, Day 57-84) was 4.126±7.9652 mm and the “mean VAS score, pelvic pain” value (40 mg, Day 57-84) was 4.785±8.9162 mm. The “change from baseline in mean VAS, dysmenorrhea” value (40 mg, Day 141-168) was −31.210±17.7668 mm, the “change from baseline in mean VAS, dyspareunia” value (40 mg, Day 141-168) was −0.830±13.6774 mm and the “mean VAS score, dysmenorrhea” value (40 mg, Day 141-168) was 0.430±2.3141 mm. The “mean VAS score, dyspareunia” value (40 mg, Day 141-168) was 3.531±9.6053 mm, the “mean VAS score, pelvic pain” value (40 mg, Day 141-168) was 2.979±6.1704 mm and the “change from baseline in EHP-30, Self-image” value (40 mg, Week 24) was −9.68±17.744. The “change from baseline in EHP-30, control & powerlessness” value (40 mg, Week 24) was −20.88±21.676, the “change from baseline in EHP-30, emotional well-being” value (40 mg, Week 24) was −13.26±16.316 and the “change from baseline in EHP-30, pain” value (40 mg, Week 24) was −25.94±19.902. The “change from baseline in EHP-30, social support” value (40 mg, Week 24) was −10.28±17.109, the “change from baseline in mean B&B score, dysmenorrhea” value (40 mg, Week 24) was −2.0±0.61 and the “change from baseline in mean B&B score, dyspareunia” value (40 mg, Week 24) was −0.1±0.43. For the same molecule, the “change from baseline in mean B&B score, pelvic pain” value (40 mg, Week 24) was −1.0±0.86, the “change from baseline in mean B&B score, pelvic tenderness” value (40 mg, Week 24) was −1.0±0.92 and the “subjects without pain in B&B score, dysmenorrhea” value (40 mg, Week 24) was 94.3%. For the same molecule, the “subjects without pain in B&B score, pelvic pain” value (40 mg, Week 24) was 58.6%, the “change from baseline in proportion of days without dysmenorrhea (M-B&B)” value (40 mg, end of 28 consecutive days) was 73.98±29.567% and the “change from baseline in mean EHP-30 score” value [1] was −25.94±19.902. The “change from baseline in mean M-B&B score, deep dyspareunia” value [1] was −0.097±0.4325, the “change from baseline in mean M-B&B score, dysmenorrhea” value [1] was −1.144±0.5014 and the “change from baseline in mean M-B&B score, pelvic pain” value [1] was −0.400±0.4491. The “change from baseline in proportion of days without deep dyspareunia (M-B&B)” value [1] was 8.15±43.20%, the “change from baseline in proportion of days without dysmenorrhea (VAS)” value [1] was 78.45±29.838% and the “change from baseline in proportion of days without pelvic pain (M-B&B)” value [1] was 31.00±36.746%. The “change from baseline in proportion of days without pelvic pain (VAS)” value [1] was 36.59±34.849%, the “subjects without dysmenorrhea (B&B)” value [1] was 94.3% and the “subjects without dyspareunia (M-B&B)” value [1] was 51.3%. The “change from baseline in maximum M-B&B score, dysmenorrhea” value (40 mg, end of treatment) was −2.0±0.76, the “change from baseline in maximum M-B&B score, dyspareunia” value (40 mg, end of treatment) was −0.1±0.54 and the “change from baseline in maximum M-B&B score, pelvic pain” value (40 mg, end of treatment) was −1.0±0.89. The “change from baseline in maximum VAS, dysmenorrhea” value (40 mg, end of treatment) was −57.1±25.00 mm, the “change from baseline in maximum VAS, dyspareunia” value (40 mg, end of treatment) was −2.5±17.17 mm and the “change from baseline in maximum VAS, pelvic pain” value (40 mg, end of treatment) was −49.7±26.47 mm. For the same molecule, the “change from baseline in mean M-B&B score, deep dyspareunia” value (40 mg, end of treatment) was −0.097±0.4325, the “change from baseline in mean M-B&B score, dysmenorrhea” value (40 mg, end of treatment) was −1.144±0.5014 and the “change from baseline in mean M-B&B score, pelvic pain” value (40 mg, end of treatment) was −0.400±0.4491. The “change from baseline in mean VAS, dysmenorrhea” value (40 mg, end of treatment) was −29.513±17.5379 mm, the “change from baseline in mean VAS, dyspareunia” value (40 mg, end of treatment) was −0.925±12.0373 mm and the “change from baseline in mean VAS, pelvic pain” value (40 mg, end of treatment) was −11.924 mm and −11.924±11.2609 mm. The “change from baseline in mean score of amount of bleeding (0 to 5)” value (40 mg, end of treatment) was −2.207±0.8149, the “change from baseline in proportion of days with usage of pain killer” value (40 mg, end of treatment) was −9.95±14.214% and the “change in proportion of days without pain (M-B&B), deep dyspareunia” value (40 mg, end of treatment) was 8.15±43.207%. The “change in proportion of days without pain (M-B&B), dysmenorrhea” value (40 mg, end of treatment) was 73.98±29.567%, the “change in proportion of days without pain (M-B&B), pelvic pain” value (40 mg, end of treatment) was 31.00±36.746% and the “change in proportion of days without pain (VAS), dysmenorrhea” value (40 mg, end of treatment) was 78.45±29.838%. For the same molecule, the “change in proportion of days without pain (VAS), dyspareunia” value (40 mg, end of treatment) was 4.50±40.796%, the “change in proportion of days without pain (VAS), pelvic pain” value (40 mg, end of treatment) was 36.59±34.849% and the “mean VAS score, dysmenorrhea” value (40 mg, end of treatment) was 0.918±4.3438 mm. For the same molecule, the “mean VAS score, dyspareunia” value (40 mg, end of treatment) was 4.842±9.1145 mm, the “mean VAS score, pelvic pain” value (40 mg, end of treatment) was 3.335±6.4059 mm and the “subjects who achieved amenorrhea” value (40 mg, end of treatment) was 91.3%. For the same molecule, the “subjects without pain in M-B&B score, dysmenorrhea” value (40 mg, end of treatment) was 93.2%, the “subjects without pain in M-B&B score, dyspareunia” value (40 mg, end of treatment) was 51.3% and the “subjects without pain in M-B&B score, pelvic pain” value (40 mg, end of treatment) was 52.4%. The “subjects without pain in VAS score, dysmenorrhea” value (40 mg, end of treatment) was 93.2%, the “subjects without pain in VAS score, dyspareunia” value (40 mg, end of treatment) was 48.7% and the “subjects without pain in VAS score, pelvic pain” value (40 mg, end of treatment) was 49.5% and 50%.
